The record followed here is US9409884B2 (Rigel Pharmaceuticals, Inc., priority 2012, dated 2016).

In general, EC50 refers to the concentration that produces a half-maximal response.

The assay has as its target AMPK. The experiment in a line: AMPK activation, enzyme-linked immunosorbent assay. The assay is classed as biochemical. Particulars: Table 8, compounds of Table 1. The essentials:
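AMPK activation by test compounds was measured by enzyme-linked immunosorbent assay.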
Compound `CC(C)(C)OC(=O)N1CC[C@H](NC(=O)c2cc3cc(OC4CCN(Cc5ccc(Cl)cc5)CC4)ccc3o2)C1` [Compound 1-127, (S)-tert-butyl 3-(5-(1-(4-chlorobenzyl)piperidin-4-yloxy)benzofuran-2-carboxamido) pyrrolidine-1-carboxylate] showed an EC50 of 1000 to 5000 nM.
Next, `O=C(N[C@H]1CCNC1)c1cc2cc(OC3CCN(Cc4ccc(Cl)cc4)CC3)ccc2o1` [Compound 1-128, (S)-5-(1-(4-chlorobenzyl)piperidin-4-yloxy)-N-(pyrrolidin-3-yl)benzofuran-2-carboxamide]: above 10000 nM.
`O=C(N[C@H]1CCN(Cc2ccncc2)C1)c1cc2cc(OC3CCN(Cc4ccc(Cl)cc4)CC3)ccc2o1` [Compound 1-129, (S)-5-(1-(4-chlorobenzyl)piperidin-4-yloxy)-N-(1-(pyridin-4-ylmethyl)pyrrolidin-3-yl)benzofuran-2-carboxamide] registered an EC50 of 1000 to 5000 nM.
For the compound `O=C(N[C@H]1CCN(Cc2cccnc2)C1)c1cc2cc(OC3CCN(Cc4ccc(Cl)cc4)CC3)ccc2o1` [Compound 1-130, (S)-5-(1-(4-chlorobenzyl)piperidin-4-yloxy)-N-(1-(pyridin-3-ylmethyl)pyrrolidin-3-yl)benzofuran-2-carboxamide], the EC50 was 1000 to 5000 nM.
With `NC(=O)c1ccc(CN2CCC(Oc3ccc4oc(C(=O)NC5CCN(Cc6ccncc6)CC5)cc4c3)CC2)cc1` [Compound 1-131, 5-(1-(4-carbamoylbenzyl)piperidin-4-yloxy)-N-(1-(pyridin-4-ylmethyl)piperidin-4-yl)benzofuran-2-carboxamide] the figure was 1000 to 5000 nM; with `O=C(NC1CCN(Cc2ccncc2)CC1)c1cc2cc(OC3CCN(c4ccc(OC(F)(F)F)cc4)CC3)ccc2s1` [Compound 1-137, N-(1-(pyridin-4-ylmethyl)piperidin-4-yl)-5-(1-(4-(trifluoromethoxy)phenyl)piperidin-4-yloxy)benzo [b]thiophene-2-carboxamide], below 100 nM; with `O=C(NC1CCN(Cc2ccncc2)CC1)c1cc2cc(OC3CCN(c4ccc(C(F)(F)F)cc4)CC3)ccc2s1` [Compound 1-138, N-(1-(pyridin-4-ylmethyl)piperidin-4-yl)-5-(1-(4-(trifluoromethyl)phenyl)piperidin-4-yloxy)benzo [b]thiophene-2-carboxamide], below 100 nM.
The compound `CC(C)(C)OC(=O)N1CCC(NC(=O)c2cc3ccc(OC4CCN(c5ccc(C(F)(F)F)cc5)CC4)cc3s2)CC1` [Compound 1-140, tert-butyl 4-(6-(1-(4-(trifluoromethyl)phenyl)piperidin-4-yloxy)benzo[b]thiophene-2-carboxamido) piperidine-1-carboxylate] had an EC50 of 500 to 1000 nM.
Compound `O=C(NC1CCNCC1)c1cc2ccc(OC3CCN(c4ccc(C(F)(F)F)cc4)CC3)cc2s1` [Compound 1-141, N-(piperidin-4-yl)-6-(1-(4-(trifluoromethyl)phenyl)piperidin-4-yloxy)benzo[b] thiophene-2-carboxamide] had a concentration for a half-maximal effect (EC50) of 100 to 500 nM.
With `N#Cc1ccc(CN2CCC(NC(=O)c3cc4ccc(OC5CCN(c6ccc(C(F)(F)F)cc6)CC5)cc4s3)CC2)cc1` [Compound 1-144, N-(1-(4-cyanobenzyl)piperidin-4-yl)-6-(1-(4-(trifluoromethyl)phenyl)piperidin-4-yloxy)benzo [b]thiophene-2-carboxamide] the figure was below 100 nM; with `N#Cc1cccc(CN2CCC(NC(=O)c3cc4ccc(OC5CCN(c6ccc(C(F)(F)F)cc6)CC5)cc4s3)CC2)c1` [Compound 1-145, N-(1-(3-cyanobenzyl)piperidin-4-yl)-6-(1-(4-(trifluoromethyl)phenyl)piperidin-4-yloxy)benzo [b]thiophene-2-carboxamide], 100 to 500 nM.
Turning to `N#Cc1ccccc1CN1CCC(NC(=O)c2cc3ccc(OC4CCN(c5ccc(C(F)(F)F)cc5)CC4)cc3s2)CC1` [Compound 1-146, N-(1-(2-cyanobenzyl)piperidin-4-yl)-6-(1-(4-(trifluoromethyl)phenyl)piperidin-4-yloxy)benzo [b]thiophene-2-carboxamide], the 50% effective concentration (EC50) lay within 100 to 500 nM.
Next, `CC(C)(C)OC(=O)N1CCC(NC(=O)c2sc3cc(OC4CCN(c5ccc(C(F)(F)F)cc5)CC4)ccc3c2Cl)CC1` [Compound 1-147, tert-butyl 4-(3-chloro-6-(1-(4-(trifluoromethyl)phenyl)piperidin-4-yloxy)benzo [b]thiophene-2-carboxamido) piperidine-1-carboxylate]: 1000 to 5000 nM; `O=C(NC1CCNCC1)c1sc2cc(OC3CCN(c4ccc(C(F)(F)F)cc4)CC3)ccc2c1Cl` [Compound 1-148, 3-chloro-N-(piperidin-4-yl)-6-(1-(4-(trifluoromethyl)phenyl)piperidin-4-yloxy)benzo [b]thiophene-2-carboxamide]: above 10000 nM.
With `CC(C)(C)OC(=O)N1CCC(NC(=O)c2cc3cc(OC4CCN(c5ccc(C(F)(F)F)cc5)CC4)ccc3s2)CC1` [Compound 1-149, tert-butyl 4-(5-(1-(4-(trifluoromethyl)phenyl)piperidin-4-yloxy)benzo [b]thiophene-2-carboxamido) piperidine-1-carboxylate] the figure was below 100 nM; with `O=C(NC1CCNCC1)c1cc2cc(OC3CCN(c4ccc(C(F)(F)F)cc4)CC3)ccc2s1` [Compound 1-150, N-(piperidin-4-yl)-5-(1-(4-(trifluoromethyl)phenyl)piperidin-4-yloxy)benzo [b]thiophene-2-carboxamide], 1000 to 5000 nM; with `O=C(NC1CCN(Cc2ccncc2)CC1)c1sc2cc(OC3CCN(c4ccc(C(F)(F)F)cc4)CC3)ccc2c1Cl` [Compound 1-151, 3-chloro-N-(1-(pyridin-4-ylmethyl)piperidin-4-yl)-6-(1-(4-(trifluoromethyl)phenyl)piperidin-4-yloxy)benzo[b] thiophene-2-carboxamide], below 100 nM.
Next, `O=C(NC1CCN(Cc2cccnc2)CC1)c1sc2cc(OC3CCN(c4ccc(C(F)(F)F)cc4)CC3)ccc2c1Cl` [Compound 1-152, 3-chloro-N-(1-(pyridin-3-ylmethyl)piperidin-4-yl)-6-(1-(4-(trifluoromethyl)phenyl)piperidin-4-yloxy)benzo[b] thiophene-2-carboxamide]: below 100 nM.
In the case of `O=C(NC1CCN(Cc2ccccn2)CC1)c1sc2cc(OC3CCN(c4ccc(C(F)(F)F)cc4)CC3)ccc2c1Cl` [Compound 1-153, 3-chloro-N-(1-(pyridin-2-ylmethyl)piperidin-4-yl)-6-(1-(4-(trifluoromethyl)phenyl)piperidin-4-yloxy)benzo[b] thiophene-2-carboxamide], the concentration for a half-maximal effect (EC50) is 100 to 500 nM.
Next, `N#Cc1ccc(CN2CCC(NC(=O)c3sc4cc(OC5CCN(c6ccc(C(F)(F)F)cc6)CC5)ccc4c3Cl)CC2)cc1` [Compound 1-154, 3-chloro-N-(1-(4-cyanobenzyl)piperidin-4-yl)-6-(1-(4-(trifluoromethyl)phenyl)piperidin-4-yloxy)benzo[b] thiophene-2-carboxamide]: below 100 nM.
With `O=C(NC1CCN(C(=O)c2ccncc2)CC1)c1sc2cc(OC3CCN(c4ccc(C(F)(F)F)cc4)CC3)ccc2c1Cl` [Compound 1-155, 3-chloro-N-(1-isonicotinoylpiperidin-4-yl)-6-(1-(4-(trifluoromethyl)phenyl)piperidin-4-yloxy)benzo[b] thiophene-2-carboxamide] the figure was below 100 nM; with `CC(C)(C)OC(=O)N1CCC(NC2CCc3cc(OC4CCN(c5ccc(C(F)(F)F)cc5)CC4)ccc32)CC1` (centres unmarked) [Compound 1-156, tert-butyl 4-(5-(1-(4-(trifluoromethyl)phenyl)piperidin-4-yloxy)-2,3-dihydro-1H-inden-1-ylamino)piperidine-1-carboxylate], 100 to 500 nM; with `FC(F)(F)c1ccc(N2CCC(Oc3ccc4c(c3)CCC4NC3CCNCC3)CC2)cc1` (centres unmarked) [Compound 1-157, N-(5-(1-(4-(trifluoromethyl)phenyl)piperidin-4-yloxy)-2,3-dihydro-1H-inden-1-yl)piperidin-4-amine], 1000 to 5000 nM.
Next, `FC(F)(F)c1ccc(N2CCC(Oc3ccc4c(c3)CCC4NC3CCN(Cc4ccncc4)CC3)CC2)cc1` (centres unmarked) [Compound 1-158, 1-(pyridin-4-ylmethyl)-N-(5-(1-(4-(trifluoromethyl)phenyl)piperidin-4-yloxy)-2,3-dihydro-1H-inden-1-yl)piperidin-4-amine]: 100 to 500 nM; `Fc1ccc(CN2CCC(NC3CCc4cc(OC5CCN(c6ccc(C(F)(F)F)cc6)CC5)ccc43)CC2)cc1` (centres unmarked) [Compound 1-159, 1-(4-fluorobenzyl)-N-(5-(1-(4-(trifluoromethyl)phenyl)piperidin-4-yloxy)-2,3-dihydro-1H-inden-1-yl)piperidin-4-amine]: 100 to 500 nM; `N#Cc1ccc(CN2CCC(NC3CCc4cc(OC5CCN(c6ccc(C(F)(F)F)cc6)CC5)ccc43)CC2)cc1` (centres unmarked) [Compound 1-160, 4-((4-(5-(1-(4-(trifluoromethyl)phenyl)piperidin-4-yloxy)-2,3-dihydro-1H-inden-1-ylamino)piperidin-1-yl)methyl)benzonitrile]: below 100 nM.
With `N#Cc1ccc(CN2CCC(NC(=O)c3cc4ccc(OC5CCN(Cc6cnn(-c7ccc(C#N)cc7)c6)CC5)cc4o3)CC2)cc1` [Compound 1-161, N-(1-(4-cyanobenzyl)piperidin-4-yl)-6-(1-((1-(4-cyanophenyl)-1H-pyrazol-4-yl)methyl)piperidin-4-yloxy)benzofuran-2-carboxamide], the EC50 is 500 to 1000 nM.
As for `N#Cc1ccc(CN2CCC(NC(=O)c3cc4cc(OC5CCN(Cc6cnn(-c7ccc(C#N)cc7)c6)CC5)ccc4o3)CC2)cc1` [Compound 1-162, N-(1-(4-cyanobenzyl)piperidin-4-yl)-5-(1-((1-(4-cyanophenyl)-1H-pyrazol-4-yl)methyl)piperidin-4-yloxy)benzofuran-2-carboxamide], the EC50 is below 100 nM.
With `N#Cc1ccc(CN2CCC(NC(=O)c3cc4cc(OC5CCN(C(=O)c6ccc(-n7cccn7)cc6)CC5)ccc4o3)CC2)cc1` [Compound 1-163, 5-(1-(4-(1H-pyrazol-1-yl)benzoyl)piperidin-4-yloxy)-N-(1-(4-cyanobenzyl)piperidin-4-yl)benzofuran-2-carboxamide] the figure was below 100 nM.
